Source: US20250313554A1, “PTPN2 INHIBITORS” (Ness Therapeutics, Inc., priority 2022, published 2025)
Like-named read-outs stand apart in the source and are kept apart here.

What was measured:
[1] = system: B16F10 mouse melanoma cells; experiment: Tumor cells B16F10 cellular growth IFNγ-induced inhibition assay (CellTiter-Glo); type: cell-based; details: for IC50: B16-F10, 72 h, 3 days of incubation; for inhibition at 100 µM: B16-F10, B16F10, 100 μM compound
Procedure: B16F10 mouse melanoma cells (ATCC Cat #CRL-6475) were seeded at a density of 500 cells per well in a 384-well clear bottom plate (Corning Cat #3712, Corning, N.Y.) in 40 μL total volume of DMEM+10% FBS (PanEco Cat #C420, Russia and Sigma Cat #F4135, St. Louis, MO). Cells were allowed to adhere overnight at 37° C., 5% CO2. On the following day, 250× solutions of compounds in DMSO (Sigma Cat #D2650) were prepared into Cmpnds plate (Diamond Well Plate, Axigen, Cat #P-384-120SQ-C-S) (final concentration of 1×) and DMSO only controls were included. Dilution Plate (Diamond Well Plate (Axigen, Cat #P-384-120SQ-C-S) was prepared by adding 49 μL of culture medium per well: half of the plate with culture medium only, half with culture medium+IFNγ (5 ng/ml). A 1 μL aliquot of 250× compounds (Cmpnds plate) was added to 49 μL of culture medium (Dilution plate), then a 10 μL aliquot of the mixture was transferred to Reaction plate with 40 μL of cells followed by centrifugation at 240 g for 1 min. After 3 days of incubation, 10 μL of CellTiter-Glo (Promega) was added to the cells, plates were centrifuged at 240 g for 1 min, and luminescence signal was measured. For each compound, the percent growth inhibition at every compound dose level was calculated relative to the “DMSO/with IFNγ” control and used to determine the IC50.

[2] = Pharmacokinetic (PK) study in mice, oral bioavailability; type: in vivo, Male CD-1 mice; details: 10 mg/kg PO vs 2 mg/kg IV, 10% Ethanol, 30% PEG-400, 60% Phosal-50PG, form Suspension
Procedure: Pharmacokinetic (PK) study in mice: Male CD-1 mice obtained from Charles River GmbH (Sulzfeld, Germany) with body weight ranging between 30 g to 40 g were used in the PK studies. Group of 12 mice were given a 2 mg/kg intravenous bolus (IV) dose of test article as a solution in 20% HP-beta-CD, and another group of 9 mice were given a 10 mg/kg oral (PO) dose of test article as a solution or suspension in [10% ethanol, 30% PEG-400 and 60% Phosal-50PG]. Blood samples (˜200 μL per time point) were collected twice from each animal—from orbital sinus and by cardiopuncture at 0.083, 0.25, 0.5, 1, 2, 4, 8 and 24 hours after IV administration, and at 0.5, 1, 2, 4, 8 and 24 hours after PO administration, 3 mice/time point. Blood samples were collected in tubes with Na-EDTA 0.5 M solution (1:10) and centrifuged for 10 min at 10,000 rpm at 2 to 8° C. to harvest plasma. Plasma samples were stored at −80° C. until LC/MS/MS analysis. Concentration in each plasma sample was determined by a non-validated LC/MS/MS. Data is acquired using multiple reaction monitoring (MRM) with specific transitions monitored for each compound. Pharmacokinetic Analysis: PK parameters were calculated by non-compartmental methods as described in Gibaldi and Perrier (Gibaldi and Perrier, 1982) using Phoenix® WinNonlin® version 6.3 (Certara L.P.). Following PO administration, percent bioavailability (Fabs) was determined by dividing the dose normalized mean area under the plasma concentration-time curve, extrapolated to the last time point (AUClast) obtained following PO dose by the mean dose normalized AUC of the animals dosed by IV injection. All PK parameters are presented as mean±standard deviation (SD). PK studies were conducted in mice for exemplary compounds of Formula (I). The percent bioavailability (Fabs) values determined are listed in Table C for certain compounds, together with the dosage, vehicle and form used in the studies.

[3] = biological target: GST-tagged PTPN2 protein (Homo sapiens (Human), UniProt P17706); experiment: Primary assay of PTPN2 enzymatic activity inhibition (DiFMUP fluorescence); type: biochemical; details: PTPN2 0.004 ng/μL, DiFUMP substrate 2 μM, 60 min at rt
Sequence of GST-tagged PTPN2 protein (P17706 whole entry): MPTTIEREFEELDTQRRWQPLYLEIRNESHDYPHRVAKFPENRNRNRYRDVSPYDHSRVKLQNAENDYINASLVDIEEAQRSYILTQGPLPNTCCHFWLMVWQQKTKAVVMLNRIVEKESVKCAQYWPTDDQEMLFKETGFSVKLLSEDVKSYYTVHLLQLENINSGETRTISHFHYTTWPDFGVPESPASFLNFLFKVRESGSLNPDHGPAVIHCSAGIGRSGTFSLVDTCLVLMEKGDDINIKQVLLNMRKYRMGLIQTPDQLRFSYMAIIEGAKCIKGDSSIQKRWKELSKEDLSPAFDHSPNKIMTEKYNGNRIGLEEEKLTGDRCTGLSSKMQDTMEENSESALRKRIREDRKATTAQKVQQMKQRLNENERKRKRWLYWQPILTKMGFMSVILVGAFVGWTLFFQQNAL
Procedure: Compound activity was determined using GST-tagged PTPN2 protein (Cat #31592, ActiveMotif) (SEQ ID NO: 1) in an in vitro enzymatic reaction. The enzymatic reaction was carried out in assay buffer (50 mM HEPES Na salt pH 7.2-7.4, 2 mM EDTA, 100 mM NaCl, 52 ng/μL BSA, and 6 mM DTT). The compounds were dispensed on a 384 well Diamond Well Plate (Axigen, Cat #P-384-120SQ-C-S) using the Biomek FX liquid handling system at 100× solutions of compounds in DMSO. 2×PTPN2 (final concentration 0.004 ng/μL) was prepared in 1× Assay buffer and 25 μL of mixture per well was added into Reaction plate (Optiplate, black, Perkin Elmer, Cat #6007270). Add 25 μL of 1× buffer to Ctrl- (Substrate w/o PTPN2) wells followed by centrifugation at 100 g for 1 min. Next step the Compounds were added to Reaction plate using Biomek station via following steps: 3 μl of 100× compounds (in DMSO) were mixed with 27 μL of Assay Buffer, then 5 μL of this mixture was added to Reaction plate with 25 μL of PTPN2 Mix. Plates were centrifuged for 1 min at 100 g and incubated for another 10 min at rt. Finally, 20 μL of 2.5× Substrate (DiFUMP, Invitrogen™ Cat #D6567) mix was added into appropriate wells of Reaction plate to the final concentration of 2 μM, plate was centrifuged at 100 g for 1 min followed by incubation at rt for 60 min, and the Fluorescence Intensity was measured using a Microplate Reader (ClarioStar Plus, excitation 360 nm, emission 450 nm). The % inhibition was then used to calculate the Ki values. The Ki values are shown in Table A, wherein “A” corresponds to Ki<1.0 nm, “B” corresponds to 1.0 nm≤Ki<5.0 nm, “C” corresponds to 5.0 nm≤Ki<10.0 nm, “D” corresponds to 10.0 nm≤Ki<50.0 nm, and “E” corresponds to 50.0 nm≤Ki<100.0 nm, and “F” corresponds to 100.0 nm≤Ki.

## Cc1cc(O)nc(Nc2cc(O)c(N3CC(=O)NS3(=O)=O)c(F)c2)n1 [Compound 10, 5-[2-fluoro-6-hydroxy-4-[(4-hydroxy-6-methyl-pyrimidin-2-yl)amino]phenyl]-1,1-dioxo-1,2,5-thiadiazolidin-3-one]
[1]; B16F10, no IFNγ, read-out: IC50 no IFNγ
  IC50: > 100000 nM
[1]; B16F10, with IFNγ, read-out: IC50 + IFNγ
  IC50: < 5000 nM
[1]; no IFNγ, read-out: % Growth Inhibition at 100 μM no IFNγ
  inhibition at 100 µM: 10 to 50%
[1]; with IFNγ, read-out: % Growth Inhibition at 100 μM + IFNγ
  inhibition at 100 µM: 75 to 100%
[2]
  Fabs, %: 2.7%
[3]
  Ki: 1 to 5 nM
